# Counter-ions that a name gives are not always drawn. Bridge positions count the residues as written; N and C are the ends. Peptide text beside a SMILES is read from it.
# Molecular target: SARS-CoV-2 Mac1 (Severe acute respiratory syndrome coronavirus 2, UniProt P0DTD1)
# Experiment: biochemical
# Settings: for inhibition at 100 µM: read-out: %inhibition; for %inhibition: 100 µM, inhibitor
SMILES,inhibition at 100 µM,%inhibition
NCCCC[C@H](NC(=O)[C@@H]1CCCN1C(=O)[C@@H]1CSSC[C@H](NC(=O)CNC(=O)CNC(=O)CN)C(=O)N[C@@H](Cc2ccc(O)cc2)C(=O)N[C@@H](Cc2ccccc2)C(=O)N[C@@H](CCC(N)=O)C(=O)N[C@@H](CC(N)=O)C(=O)N1)C(=O)NCC(N)=O [Terlipressin Acetate] (H-GGGCYFQNCPKG-NH2; disulfide 4-9),0%,–
CC1(O)CCC(C(C)(C)O)CC1 (centres unmarked) [Terpin hydrate],0%,–
CCCCCCC(=O)O[C@H]1CC[C@H]2[C@@H]3CCC4=CC(=O)CC[C@]4(C)[C@H]3CC[C@]12C [Testosterone Enanthate],0%,–
COc1cc2c(cc1OC)[C@H]1CC(=O)[C@H](CC(C)C)CN1CC2 [Tetrabenazine (Xenazine)],18.7%,–
CCCCNc1ccc(C(=O)OCCN(C)C)cc1 [Tetracaine HCl],9.17%,–
CN(C)[C@@H]1C(=O)C(C(N)=O)=C(O)[C@@]2(O)C(=O)C3=C(O)c4c(O)cccc4[C@@](C)(O)[C@H]3C[C@@H]12 [Tetracycline HCl],22.7%,–
c1ccc2c(c1)CCCC2C1=NCCN1 (centres unmarked) [Tetrahydrozoline HCl],0%,–
c1ccc(C2CN3CCSC3=N2)cc1 (centres unmarked) [Tetramisole HCl],0%,–
CC(C)(CO)c1cc2cc(NC(=O)C3(c4ccc5c(c4)OC(F)(F)O5)CC3)c(F)cc2n1C[C@@H](O)CO [Tezacaftor(VX-661)],16.1%,–
O=C1CCC(N2C(=O)c3ccccc3C2=O)C(=O)N1 (centres unmarked) [Thalidomide],14%,–
c1ccc2[nH]c(-c3cscn3)nc2c1 [Thiabendazole],21.5%,–
Cc1ncc(C[n+]2csc(CCO)c2C)c(N)n1 [Thiamine HCl (Vitamin B1)],0%,–
CS(=O)(=O)c1ccc([C@@H](O)[C@@H](CO)NC(=O)C(Cl)Cl)cc1 [Thiamphenicol],13.4%,–
Nc1nc2[nH]cnc2c(=S)[nH]1 [Thioguanine],18.9%,–
S=P(N1CC1)(N1CC1)N1CC1 [Thiotepa],21.5%,–
Cc1ccc(C(C)C)c(O)c1 [Thymol],0.387%,–
Cc1ccsc1C(=CCCN1CCC[C@@H](C(=O)O)C1)c1sccc1C [Tiagabine],9.64%,–
CN1c2ccccc2C(NCCCCCCC(=O)O)c2ccc(Cl)cc2S1(=O)=O (centres unmarked) [Tianeptine sodium],–,0%
CN1c2ccccc2C(NCCCCCCC(=O)O)c2ccc(Cl)cc2S1(=O)=O (centres unmarked) [Tianeptine],–,12.39%
CC(C(=O)O)c1ccc(C(=O)c2ccccc2)s1 (centres unmarked) [Tiaprofenic acid],26.3%,–
CCCSc1nc(N[C@@H]2C[C@H]2c2ccc(F)c(F)c2)c2nnn([C@@H]3C[C@H](OCCO)[C@@H](O)[C@H]3O)c2n1 [Ticagrelor],6.12%,–
CC1(C)S[C@@H]2[C@H](NC(=O)[C@H](C(=O)O)c3ccsc3)C(=O)N2[C@H]1C(=O)O [Ticarcillin sodium],7.19%,–
Clc1ccccc1CN1CCc2sccc2C1 [Ticlopidine HCl],0.00536%,–
O=c1sn(-c2cccc3ccccc23)c(=O)n1Cc1ccccc1 [Tideglusib],–,42.74%
CN(C)c1cc(NC(=O)CNC(C)(C)C)c(O)c2c1C[C@H]1C[C@H]3[C@H](N(C)C)C(O)=C(C(N)=O)C(=O)[C@@]3(O)C(O)=C1C2=O [Tigecycline],0%,–

SMILES,inhibition at 100 µM,%inhibition
CCNC1(c2cccs2)CCCCC1=O (centres unmarked) [Tiletamine Hydrochloride],0%,–
CC[C@H]1OC(=O)C[C@@H](O)[C@H](C)[C@@H](O[C@@H]2O[C@H](C)[C@@H](O)[C@H](N(C)C)[C@H]2O)[C@@H](CCN2C[C@H](C)C[C@H](C)C2)C[C@@H](C)C(=O)/C=C/C(C)=C/[C@@H]1CO[C@@H]1O[C@H](C)[C@@H](O)[C@@H](OC)[C@H]1OC [Tilmicosin phosphate],–,0%
CC[C@H]1OC(=O)C[C@@H](O)[C@H](C)[C@@H](O[C@@H]2O[C@H](C)[C@@H](O)[C@H](N(C)C)[C@H]2O)[C@@H](CCN2C[C@H](C)C[C@H](C)C2)C[C@@H](C)C(=O)/C=C/C(C)=C/[C@@H]1CO[C@@H]1O[C@H](C)[C@@H](O)[C@@H](OC)[C@H]1OC [Tilmicosin],–,23.11%
CC(C)(C)NC[C@H](O)COc1nsnc1N1CCOCC1 [Timolol Maleate],11.9%,–
CCS(=O)(=O)CCn1c([N+](=O)[O-])cnc1C [Tinidazole],0%,–
Clc1ccc(C(Cn2ccnc2)OCc2ccsc2Cl)c(Cl)c1 (centres unmarked) [Tioconazole],7.13%,–
CC(S)C(=O)NCC(=O)O (centres unmarked) [Tiopronin],0%,–
C[N+]1(C)[C@@H]2C[C@@H](OC(=O)C(O)(c3cccs3)c3cccs3)C[C@H]1[C@@H]1O[C@@H]12 [Tiotropium Bromide hydrate],19.5%,–
O=c1oc2cc(O)ccc2s1 [Tioxolone],23.8%,–
N=C1CCCN1Cc1[nH]c(=O)[nH]c(=O)c1Cl [Tipiracil hydrochloride],0%,–
CCCCS(=O)(=O)N[C@@H](Cc1ccc(OCCCCC2CCNCC2)cc1)C(=O)O [Tirofiban Hydrochloride],9.42%,–
O=C1NC(=O)[C@@H](c2cn3c4c(cccc24)CCC3)[C@@H]1c1c[nH]c2ccccc12 [Tivantinib (ARQ 197)],1.02%,–
COc1cc2nccc(Oc3ccc(NC(=O)Nc4cc(C)on4)c(Cl)c3)c2cc1OC [Tivozanib (AV-951)],9.18%,–
Clc1ccc2nsnc2c1NC1=NCCN1 [Tizanidine HCl],0%,–
NC[C@H]1O[C@H](O[C@H]2[C@H](O)[C@@H](O[C@H]3O[C@H](CO)[C@@H](O)[C@H](N)[C@H]3O)[C@H](N)C[C@@H]2N)[C@H](N)C[C@@H]1O [Tobramycin sulfate],–,7.872%
NC[C@H]1O[C@H](O[C@H]2[C@H](O)[C@@H](O[C@H]3O[C@H](CO)[C@@H](O)[C@H](N)[C@H]3O)[C@H](N)C[C@@H]2N)[C@H](N)C[C@@H]1O [Tobramycin],–,0%
CCc1ccc(Cc2ccc3c(c2)[C@]2(OC3)O[C@H](CO)[C@@H](O)[C@H](O)[C@H]2O)cc1 [Tofogliflozin(CSG 452)],1.23%,–
c1ccc(CC2=NCCN2)cc1 [Tolazoline HCl],7.01%,–
CCCCNC(=O)NS(=O)(=O)c1ccc(C)cc1 [Tolbutamide],0%,–
Cc1ccc(C(=O)c2cc(O)c(O)c([N+](=O)[O-])c2)cc1 [Tolcapone],0%,–
Cc1c(Cl)cccc1Nc1ccccc1C(=O)O [Tolfenamic Acid],16.4%,–
Cc1ccc(C(=O)c2ccc(CC(=O)O)n2C)cc1 [Tolmetin Sodium],–,0.1982%
Cc1ccc(C(=O)c2ccc(CC(=O)O)n2C)cc1 [Tolmetin],–,4.72%
Cc1cccc(N(C)C(=S)Oc2ccc3ccccc3c2)c1 [Tolnaftate],0%,–
Cc1ccc(C(=O)C(C)CN2CCCCC2)cc1 (centres unmarked) [Tolperisone HCl],8.81%,–

SMILES,inhibition at 100 µM,%inhibition
Cc1ccc(O)c([C@H](CCN(C(C)C)C(C)C)c2ccccc2)c1 [Tolterodine tartrate],34.1%,–
Cc1cc(-n2c(=O)[nH]c(=O)n(C)c2=O)ccc1Oc1ccc(SC(F)(F)F)cc1 [Toltrazuril],0%,–
Cc1ccccc1C(=O)Nc1ccc(C(=O)N2CCCC(O)c3cc(Cl)ccc32)c(C)c1 (centres unmarked) [Tolvaptan],10.6%,–
CC1(C)O[C@@H]2[C@@H](CO[C@@]3(COS(N)(=O)=O)OC(C)(C)O[C@@H]23)O1 [Topiramate],0%,–
N#Cc1cc(-c2n[nH]c(-c3ccncc3)n2)ccn1 [Topiroxostat],0%,–
CC[C@@]1(O)C(=O)OCc2c1cc1n(c2=O)Cc2cc3c(CN(C)C)c(O)ccc3nc2-1 [Topotecan HCl],24.2%,–
CN(C)CCOc1ccc(/C(=C(/CCCl)c2ccccc2)c2ccccc2)cc1 [Toremifene Citrate],21.7%,–
Cc1cccc(Nc2ccncc2S(=O)(=O)NC(=O)NC(C)C)c1 [Torsemide],15.1%,–
"Cc1cc(Nc2cc(N3CCN(C)CC3)nc(Sc3ccc(NC(=O)C4CC4)cc3)n2)n[nH]1 [Tozasertib (VX-680, MK-0457)]",33.2%,–
CC(=O)Nc1cccc(-n2c(=O)n(C3CC3)c(=O)c3c(Nc4ccc(I)cc4F)n(C)c(=O)c(C)c32)c1 [Trametinib (GSK1120212)],3.49%,–
COc1ccc(/C=C/C(=O)Nc2ccccc2C(=O)O)cc1OC [Tranilast],0%,–
N[C@H]1C[C@@H]1c1ccccc1 [Tranylcypromine (2-PCPA) HCl],0%,–
CC(C)OC(=O)CCC/C=C\C[C@@H]1[C@@H](/C=C/[C@@H](O)COc2cccc(C(F)(F)F)c2)[C@H](O)C[C@@H]1O [Travoprost],0%,–
Cn1c(=O)cc(N2CCC[C@@H](N)C2)n(Cc2cc(F)ccc2C#N)c1=O [Trelagliptin succinate],–,24.59%
Cn1c(=O)cc(N2CCC[C@@H](N)C2)n(Cc2cc(F)ccc2C#N)c1=O [Trelagliptin],–,0%
CC1=C(/C=C/C(C)=C/C=C/C(C)=C/C(=O)O)C(C)(C)CCC1 [Tretinoin],0%,–
CC(=O)OCC(COC(C)=O)OC(C)=O [Triacetin],3.58%,–
CC1(C)O[C@@H]2C[C@H]3[C@@H]4CCC5=CC(=O)C=C[C@]5(C)[C@@]4(F)[C@@H](O)C[C@]3(C)[C@]2(C(=O)CO)O1 [Triamcinolone Acetonide],0%,–
C[C@]12C=CC(=O)C=C1CC[C@H]1[C@@H]3C[C@@H](O)[C@](O)(C(=O)CO)[C@@]3(C)C[C@H](O)[C@@]12F [Triamcinolone],16.5%,–
Nc1nc(N)c2nc(-c3ccccc3)c(N)nc2n1 [Triamterene],4.22%,–
COc1cc(C(=O)NCc2ccc(OCCN(C)C)cc2)cc(OC)c1OC [Tribenzagan Hydrochloride],0%,–
NS(=O)(=O)c1cc2c(cc1Cl)NC(C(Cl)Cl)NS2(=O)=O (centres unmarked) [Trichlormethiazide],0%,–
CSc1nc2cc(Cl)c(Oc3cccc(Cl)c3Cl)cc2[nH]1 [Triclabendazole],20.5%,–
Oc1cc(Cl)ccc1Oc1ccc(Cl)cc1Cl [Triclosan],0%,–
